The source made the active and inactive calls. No cut-off for these calls is given here. Some results are limits rather than exact numbers.

The results in this text go back to ChEMBL document CHEMBL4819110, “Developments of small molecules as inhibitors for carbonic anhydrase isoforms” (Bioorg Med Chem, 2021).

Assay [1] has as its target Carbonic anhydrase 1 (Homo sapiens, UniProt P00915).
Description: Inhibition of human CA1 by stopped-flow assay
For assay [2], the target named is Carbonic anhydrase 2 (Homo sapiens, UniProt P00918).
Description: Inhibition of human CA2 by stopped-flow assay
In assay [3] the target is Carbonic anhydrase 4 (Homo sapiens, UniProt P22748). Put plainly: Inhibition of human CA4 by stopped-flow assay.
Carbonic anhydrase 4, sequence (P22748 whole entry): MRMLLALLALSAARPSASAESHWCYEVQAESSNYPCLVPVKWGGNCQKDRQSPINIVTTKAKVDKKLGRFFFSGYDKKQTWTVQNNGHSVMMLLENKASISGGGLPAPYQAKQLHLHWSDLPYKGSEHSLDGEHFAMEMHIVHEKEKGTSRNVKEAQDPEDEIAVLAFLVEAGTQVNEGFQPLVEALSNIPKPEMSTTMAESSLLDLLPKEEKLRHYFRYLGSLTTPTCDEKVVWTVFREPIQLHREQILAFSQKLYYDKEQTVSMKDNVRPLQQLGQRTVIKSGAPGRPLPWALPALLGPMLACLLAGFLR
Assay [4] addresses Carbonic anhydrase 9 (Homo sapiens, UniProt Q16790).
Description: Inhibition of human CA9 by stopped-flow assay
In assay [5] the target is Mitogen-activated protein kinase 14 (Homo sapiens, UniProt Q16539). Put plainly: Inhibition of p38alphaMAPK (unknown origin).
Mitogen-activated protein kinase 14, sequence (Q16539 whole entry): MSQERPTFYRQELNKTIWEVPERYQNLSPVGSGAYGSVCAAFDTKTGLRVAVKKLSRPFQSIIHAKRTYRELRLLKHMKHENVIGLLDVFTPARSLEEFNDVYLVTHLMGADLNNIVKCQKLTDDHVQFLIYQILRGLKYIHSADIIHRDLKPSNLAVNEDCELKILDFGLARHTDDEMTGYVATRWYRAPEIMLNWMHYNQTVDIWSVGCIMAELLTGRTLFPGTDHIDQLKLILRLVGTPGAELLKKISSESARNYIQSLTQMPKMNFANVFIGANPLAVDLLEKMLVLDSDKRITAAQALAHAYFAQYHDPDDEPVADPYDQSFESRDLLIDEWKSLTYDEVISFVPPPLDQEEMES
Assay [6] deals with MCF7. Put plainly: Cytotoxicity against human MCF7 cells. In kind it is functional, cell-based.
Assay [7] has as its system Oryctolagus cuniculus. The experiment in a line: Antiglaucoma activity in rabbit assessed as reduction in intraocular pressure administered topically measured upto 6 hrs. In kind it is functional, organism-based. To be noted: time hrs <=6.
The subject of assay [8] is HT-29. Put plainly: Down regulation of CA9 expression in human HT-29 cells at […] by western blot analysis. In kind it is functional, cell-based. For orientation: A western blot detects proteins with antibodies after separation by electrophoresis.
For assay [9], the system named is HT-29. The experiment in a line: Down regulation of CA12 expression in human HT-29 cells at […] by western blot analysis. In kind it is functional, cell-based.
For assay [10], the system named is MDA-MB-231. The experiment in a line: Induction of cell cycle arrest in human MDA-MB-231 cells assessed as increase in sub-G1 accumulation at IC50 by flow cytometry analysis. In kind it is functional, cell-based.
The subject of assay [11] is MDA-MB-231. The experiment in a line: Induction of cell cycle arrest in human MDA-MB-231 cells assessed as […] in G2/M accumulation at IC50 by flow cytometry analysis. In kind it is functional, cell-based. (In general: In flow cytometry, cells or beads pass a laser one at a time.)
In assay [12] the test system is MDA-MB-231. Put plainly: Induction of apoptosis in human MDA-MB-231 cells assessed as early apoptotic cells at IC50 by flow cytometry analysis (reference value: 0.77 %). In kind it is functional.
Assay [13] relates to MDA-MB-231. Put plainly: Induction of apoptosis in human MDA-MB-231 cells assessed as late apoptotic cells at IC50 by flow cytometry analysis (reference value: 0.26 %). In kind it is functional.
Assay [14] has as its system MDA-MB-231. The experiment in a line: Induction of apoptosis in human MDA-MB-231 cells assessed as necrotic cells at IC50 by flow cytometry analysis (reference value: 0.51 %). In kind it is functional.

Carbonic anhydrase 1, sequence (P00915 whole entry): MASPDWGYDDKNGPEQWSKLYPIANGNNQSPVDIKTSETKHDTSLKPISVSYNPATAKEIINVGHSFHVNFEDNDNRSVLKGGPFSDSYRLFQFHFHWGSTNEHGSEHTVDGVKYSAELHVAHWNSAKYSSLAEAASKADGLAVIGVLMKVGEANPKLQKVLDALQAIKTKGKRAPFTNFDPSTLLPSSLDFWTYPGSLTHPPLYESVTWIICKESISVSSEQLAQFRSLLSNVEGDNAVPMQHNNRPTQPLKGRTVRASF

As for `COc1ccc(C2=N/C(=C/c3ccc(O)cc3)C(=O)N2c2ccc(S(N)(=O)=O)cc2)cc1`, the Ki was 0.095 µM in assay [1], 0.00083 µM in assay [2], 0.0069 µM in assay [3] and 0.0124 µM in assay [4]. Besides, the IC50 in assay [5] stood at 0.14 µM.
Regarding `C[C@@H]1OC[C@@](O)(NC(=O)c2ccc(S(N)(=O)=O)cc2)[C@H](O)[C@H]1O`, in assay [4], the IC50 worked out at 0.76 µM. In other words, the sub-micromolar range.
With `COc1cc(/C=C2/N=C(c3ccccc3)N(c3ccc(S(N)(=O)=O)cc3)C2=O)cc(OC)c1OC`, affinity in assay [4] was put at a Ki of 0.0682 µM.
The same measure, in the same setting: next, `CCN1C(=O)/C(=N\NC(=O)c2ccc(S(N)(=O)=O)cc2)c2ccccc21`: 0.0089 µM.
Take `NS(=O)(=O)c1ccc(Nc2nc(NN3C(=O)/C(=C\c4ccccc4)N=C3c3ccccc3)cs2)cc1`: inhibition in assay [6] was half-maximal at 45.9 µM (IC50).
For the compound `NS(=O)(=O)c1ccc(C(=O)N[C@@H]2OC[C@@H](O)[C@H](O)[C@H]2O)cc1`, the outcome in assay [7] was Active.
In the case of `CC(=O)NS(=O)(=O)c1ccc(N2C(=O)/C(=C\c3cn(C(C)=O)c4ccccc34)N=C2c2ccccc2)cc1`, the Ki in [3] is above 10 µM; in assay [4] it was 1.47 µM.
Compound `COc1ccc(OC)c(/C=C2/N=C(c3ccccc3)N(c3ccc(S(N)(=O)=O)cc3)C2=O)c1` had a Ki in assay [4] of 0.023 µM.
Still for that read-out and setting: with `NS(=O)(=O)c1ccc(-n2nnc(C(=O)N3N=C(c4ccccn4)CC3(O)C(F)(F)F)c2-c2ccc(F)cc2)cc1` (stereo not drawn) the figure was 0.0007 µM.
Regarding `NS(=O)(=O)c1ccc(C(=O)N[C@@H]2O[C@H](CO)[C@@H](O)[C@H](O)[C@@H]2O)cc1`, in assay [7], the outcome was Active.
As for `CC(=O)n1cc(/C=C2/N=C(c3ccccc3)N(c3ccc(S(N)(=O)=O)cc3)C2=O)c2ccccc21`, the Ki came out at 0.263 µM in assay [3] and 0.318 µM in assay [4].
Take `NS(=O)(=O)c1ccc(C/N=C/c2c(OCc3cn(CCCOc4ccc5ccc(=O)oc5c4)nn3)ccc3ccccc23)cc1`: the outcome in assay [8] and in assay [9] was Active.
In assay [4], `NS(=O)(=O)c1ccc(NC(=O)Nc2ccc(/N=C3\C(=O)Nc4ccc(Cl)cc43)cc2)cc1` yielded a Ki of 7430 µM. The outcome in assay [10] and in assay [11] was Active. In addition, the figures for the Activity in assay [12], in assay [13] and in [14] were 7.28%, 11.26% and 2.47%, respectively.
For the compound `O=Cc1ccccc1OCc1cn(CCCOc2ccc3ccc(=O)oc3c2)nn1`, the affinity in [4] corresponds to a Ki of 0.0609 µM. For the same compound, the outcome in assay [8] and in assay [9] was Active.
`NS(=O)(=O)c1ccc(N2C(=O)/C(=C\c3ccccc3)N=C2c2ccccc2)cc1` gave a Ki in assay [4] of 0.0587 µM.
Consider `CN(C)c1ccc(/C=C2/N=C(c3ccccc3)N(Nc3csc(Nc4ccc(S(N)(=O)=O)cc4)n3)C2=O)cc1`, for which half-maximal inhibition in assay [6] (IC50) was put at 38.9 µM. That is a double-digit micromolar value.
In turn, `NS(=O)(=O)c1ccc(-n2nnc(C(=O)O)c2-c2ccccn2)cc1` had a Ki in [4] of 1.41 µM.
With `CC(=O)n1cc(/C=C2/N=C(c3ncccn3)N(c3ccc(S(N)(=O)=O)cc3)C2=O)c2ccccc21`, the Ki in assay [1], in [2], in assay [3] and in assay [4] was above 10 µM in each case.
For the compound `NS(=O)(=O)c1ccc(Nc2nc(NN3C(=O)/C(=C\c4ccc(Cl)cc4)N=C3c3ccccc3)cs2)cc1`, the affinity in [4], expressed as Ki, was 0.0292 µM. Further, in assay [6], the IC50 is above 150 µM.
For the compound `COC(=O)[C@H]1O[C@@H](NC(=O)c2ccc(S(N)(=O)=O)cc2)[C@H](O)[C@@H](O)[C@@H]1O`, in [7], the outcome was Active.

For orientation: Ki means a dissociation constant, usually derived from enzyme kinetics or from competition with a known ligand. A high value points to weaker binding. One may read the IC50 as the concentration that inhibits the measured activity by half. High values mean a need for much substance, low ones inhibition by little substance.
